Usually EC50 stands for the concentration that produces a half-maximal response. Low values mean greater potency, high ones weaker potency. One may read the AUC(0-inf) as total exposure, with the tail of the curve extrapolated. A high value points to high exposure. A word on the IC50: it is the concentration at which inhibition is half-maximal.

Where only a bound is given, the exact number is not on record here.

Series [1] deals with HIV-1 RTMC, with 67N, 70R, 215F and 219Q mutations. As to the kind of experiment: Sensitivity of NRTI-resistant HIV strain RTMC, MT-2 cells. The conditions noted are these: Human immunodeficiency virus 1, MT2. The class given is cell-based. On the procedure: (§1) 0.1 ml of a 3×10^5 cells/ml MT-2 cell suspension were seeded in 96-well plates at 3×10^4 cells/well. The compounds to be assayed were diluted in a separate 96-well at ten times (10×) the concentration needed for the screen. 22 μl of the 10× compounds was then added to the wells in triplicate except for six control wells, containing uninfected MT-2 cells alone (3 wells) and untreated HIV-infected MT-2 cells (3 wells). This was followed by the addition of HIV-1 at an MOI of 0.01, except for the three wells serving as the uninfected control. 0.1 ml of cRPMI was added to the uninfected well instead of virus. After the addition of virus, the 96-well plate was centrifuged at 1,200×g for two hours to enhance the adsorption of the virus by the MT-2 cells (see, e.g., O'Doherty, J. Virol. 74:10074-10080 (2000)). After the centrifugation step, the 96-well plate was then incubated in a 37° C. incubator containing 5% CO2 for three days. At the end of this time period the virus and cells were mixed by gentle pipetting followed by a 1 minute spin at 600×g to pellet the cells. The supernatant of each well was then serially diluted 1,000-fold into new 96-well plates to serve as inoculum for the next passage and assayed by ELISA for the amount of p24 produced. The next passage was performed as described above, except that the virus used to infect the cells was derived from the 1,000-fold dilution plate.
(§2) To determine if there is resistance of HIV NRTI resistant strains to mutagenic nucleoside analogues, NRTI resistant strains were grown in the presence of 5-aza-dC to determine whether the EC50 for 5-aza-dC is different from the WT strain (HIV-1 LAI). […] Growth of HIV NRTI resistant strains in the presence of the appropriate concentration of NRTI was used as a positive control.
Three HIV NRTI resistant strains (HIV-1 LAI-M184V, HIV-1 RTMDR1, with 74V, 41L, 106A and 215Y mutations, and HIV-1 RTMC, with 67N, 70R, 215F and 219Q mutations) were used to test the effectiveness of 5-aza-dC. […] Mutations include: M41L, E44D, A62V, K65R, D67N, T69DN, T69S_SS, K70R, L74V, V75I, F77L, Y115F, F116Y, V118I, Q151M, M184V, L210W, T215F and K219QE.
The effectiveness of DHAdC was tested against wild-type HIV strains and NRTI resistant HIV strains as described in Example 2. The following strains were tested: HIV-1 LAI, wild-type; HIV-I LAI-M184V-M184V mutation with resistance to lamivudine (3TC); HIV-1 RTMDR1-74V, 41L, 106A and 215Y mutations with resistance to zidovudine, didanosine, nevirapine and other non-nucleoside reverse transcriptase inhibitors; and HIV-1 RTMC-67N, 70R, 215F and 219Q with resistance to zidovudine.

The nature of series [2]: Pharmacokinetics of DHAdC base and DHAdC-palmitate in rats. The class given is in vivo. The conditions noted are these: rat, plasma, IV.
Series [3] is described as follows: Cytotoxicity on MT-2 cells (MTT). The conditions noted are these: human. The format is cell-based. On the procedure:
For each compound, cytotoxicity was evaluated on MT-2 cells. MT-2 cells were seeded at 3×10^4 cells/well in 96-well plates. […] After 5 days growth in a 37° C. incubator containing 5% CO2, MTT was added to a final concentration of 0.5 mg/ml and then incubated for four hours at 37° C. 10% SDS in 0.02 N HCl was added to lyse the cells overnight at 37° C. The plates were read on a Tecan Genius microplate reader at wavelengths of 570 nm/650 nm. The dose response curve was graphed by comparing the treated cells with the untreated control and the IC50 was determined for each compound.

Another series has as its system HIV. Put plainly: In vitro passaging assay of DHAdC. The class given is cell-based. The conditions noted are these: 100 nM, quadruplicate. On the procedure:
as §1, with “22 μl of the 10× compounds was then added to the wells in triplicate except for six control wells, containing uninfected MT-2 cells alone (3 wells) and untreated HIV-infected MT-2 cells (3 wells).” left out, “plate. […]” for “plate.”

Series [4] concerns HIV-1 RTMDR1, with 74V, 41L, 106A and 215Y mutations. Put plainly: Sensitivity of NRTI-resistant HIV strain RTMDR1, MT-2 cells. The class given is cell-based. The conditions noted are these: Human immunodeficiency virus 1, MT2. On the procedure:
as §1, §2
Three HIV NRTI resistant strains (HIV-1 LAI-M184V, HIV-1 RTMDR1, with 74V, 41L, 106A and 215Y mutations, and HIV-1 RTMC, with 67N, 70R, 215F and 219Q mutations) were used to test the effectiveness of 5-aza-dC. […]

As for `NC1=NC(=O)N([C@H]2C[C@H](O)[C@@H](CO)O2)CN1` [DHAdC, 1-(2-Deoxy-β-D-ribofuranosyl)-4-amino-1,2,5,6-tetrahydro-1,3,5-triazin-2-one], the EC50 in series [1] and in series [4] was 6 µM each time. The compound also registered a total exposure AUC(0-inf) in series [2] of 75000 ng·h/mL. Besides, the concentration for half-maximal inhibition (IC50) at 5 days in series [3] is > 1000 µM. Moreover, the “passage after which no infectious virus was recovered” value with HIV is given as 12 passage. The “passage by which p24 fell permanently below the limit of detection (4 ng/ml)” value in the series on HIV was ≤ 8 passage.

(Values after patent publication US7772197B2, “1,3,5-triazines for treatment of viral diseases” (1,3,5-Triazines for Treatment of Viral Diseases, priority 2002, dated 2010).)
